Laboratory results taken from ChEMBL document CHEMBL6096733, “Structure-Based Virtual Screening Identifies 2-Arylthiazole-4-Carboxylic Acids as a Novel Class of Nanomolar Affinity Ligands for the CaMKIIα Hub Domain” (J Med Chem, 2025).

Experiments:
[1] = target: T1, Calcium/calmodulin-dependent protein kinase type II subunit alpha (Rattus norvegicus, UniProt P11275); experiment: Inhibition of […] binding to CaMKIIalpha in rat brain cortical membrane assessed as inhibition constant incubated for 1 hrs by TopCount NXT microplate scintillation counter analysis; type: cell membranes, Cortex
T1 sequence (P11275 whole entry): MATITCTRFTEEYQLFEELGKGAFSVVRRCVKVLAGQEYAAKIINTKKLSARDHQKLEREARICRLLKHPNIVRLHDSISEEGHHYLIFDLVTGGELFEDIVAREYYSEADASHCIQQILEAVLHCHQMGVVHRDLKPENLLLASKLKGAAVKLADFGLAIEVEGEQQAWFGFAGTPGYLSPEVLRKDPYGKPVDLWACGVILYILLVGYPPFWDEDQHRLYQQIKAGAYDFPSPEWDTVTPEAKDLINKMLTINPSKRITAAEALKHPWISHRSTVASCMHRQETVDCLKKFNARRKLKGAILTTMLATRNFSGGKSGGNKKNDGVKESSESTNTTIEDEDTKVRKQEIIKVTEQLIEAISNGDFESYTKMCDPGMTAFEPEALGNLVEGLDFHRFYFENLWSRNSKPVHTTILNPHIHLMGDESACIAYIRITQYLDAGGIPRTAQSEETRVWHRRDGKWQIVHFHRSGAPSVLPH

physchem = conditions: potassium phosphate buffer, pH 7.4
Description: Stability of compound in potassium phosphate buffer at pH 7.4 assessed as half-life

[2] = target: T1, Calcium/calmodulin-dependent protein kinase type II subunit alpha; experiment: Inhibition of [3H]NCS-382 binding to CaMKIIalpha in rat brain cortical membrane assessed as inhibition constant incubated for 1 hrs by TopCount NXT microplate scintillation counter analysis; type: cell membranes, Cortex; conditions: read-out: Ki
[3] = target: T2, Calcium/calmodulin-dependent protein kinase type II subunit alpha (Homo sapiens, UniProt Q9UQM7); experiment: Induction of thermal stabilization of recombinant wildtype human CAMKIIalpha hub domain (345 to 475 residues) extracted from Escherichia coli BL21 (DE3) cells assessed as change in melting temperature at 0.625 to 320 microM by differential scanning fluorimetric analysis; conditions: dose 0.625-320 µM
T2 sequence (Q9UQM7 whole entry, the tested form may be a part): as the sequence (P11275 whole entry) above, with N324S counted along it

[4] = target: T2, Calcium/calmodulin-dependent protein kinase type II subunit alpha; experiment: Induction of thermal stabilization of recombinant wildtype human CAMKIIalpha hub domain (345 to 475 residues) extracted from Escherichia coli BL21 (DE3) cells by differential scanning fluorimetric analysis; conditions: dose 0.625-320 µM
[5] = target: T2, Calcium/calmodulin-dependent protein kinase type II subunit alpha; experiment: Binding affinity to recombinant wildtype human CAMKIIalpha hub domain (345 to 475 residues) extracted from Escherichia coli BL21 (DE3) cells assessed as dissociation constant by SPR analysis
BCRP [6] = experiment: Apparent permeability across apical to basolateral side in human Caco-2 cells transfected with human BCRP at 3 uM measured after 60 to 90 mins by LC-MS/MS analysis; type: ADME, cell-based; conditions: time 60-90 min
BCRP [7] = experiment: Apparent permeability across basolateral to apical side in human Caco-2 cells transfected with human BCRP at 3 uM measured after 60 to 90 mins by LC-MS/MS analysis; type: ADME, cell-based; conditions: time 60-90 min
BCRP [8] = experiment: Efflux ratio of apparent permeability across basolateral to apical side over apical to basolateral side in human Caco-2 cells transfected with human BCRP at 3 uM measured after 60 to 90 mins by LC-MS/MS analysis; type: ADME, cell-based; conditions: time 60-90 min
BCRP [9] = experiment: Apparent permeability across apical to basolateral side in human Caco-2 cells transfected with human BCRP at 3 uM preincubated with novobiocin for 15 to 30 mins followed by compound addition and measured after 60 to 90 mins by LC-MS/MS analysis; type: ADME, cell-based; conditions: time 60-90 min
BCRP [10] = experiment: Apparent permeability across basolateral to apical side in human Caco-2 cells transfected with human BCRP at 3 uM preincubated with novobiocin for 15 to 30 mins followed by compound addition and measured after 60 to 90 mins by LC-MS/MS analysis; type: ADME, cell-based; conditions: time 60-90 min
BCRP [11] = experiment: Efflux ratio of apparent permeability across basolateral to apical side over apical to basolateral side in human Caco-2 cells transfected with human BCRP at 3 uM preincubated with novobiocin for 15 to 30 mins followed by compound addition and measured after 60 to 90 mins by LC-MS/MS analysis; type: ADME, cell-based; conditions: time 60-90 min
[12] = Drug concentration in mouse plasma at 10 mg/kg, ip measured after 0.5 hrs by LC-MS/MS analysis; type: ADME, organism-based
[13] = Drug concentration in mouse brain at 10 mg/kg, ip measured after 0.5 hrs by LC-MS/MS analysis; type: ADME, organism-based; conditions: read-out: Ct
[14] = Ratio of drug concentration in mouse brain to plasma at 10 mg/kg, ip measured after 0.5 hrs by LC-MS/MS analysis; type: ADME, organism-based; conditions: brain and plasma, read-out: BPR
[15] = Ratio of unbound brain to plasma drug concentration in mouse at 10 mg/kg, ip measured after 0.5 hrs by LC-MS/MS analysis; type: ADME, organism-based; conditions: brain and plasma, read-out: K(p,uu,brain)
[16] = Metabolic stability in pooled CD-1 mouse liver microsomes assessed as parent compound remaining at 10 uM measured immediately in presence of NADPH regeneration system by LC-MS analysis; type: ADME, Microsome; conditions: read-out: Stability
[17] = Metabolic stability in pooled CD-1 mouse liver microsomes assessed as parent compound remaining at 10 uM measured after 15 mins in presence of NADPH regeneration system by LC-MS analysis; type: ADME, Microsome; conditions: read-out: Stability
[18] = Metabolic stability in pooled CD-1 mouse liver microsomes assessed as parent compound remaining at 10 uM measured after 30 mins in presence of NADPH regeneration system by LC-MS analysis; type: ADME, Microsome; conditions: read-out: Stability
[19] = Metabolic stability in pooled CD-1 mouse liver microsomes assessed as parent compound remaining at 10 uM measured after 60 mins in presence of NADPH regeneration system by LC-MS analysis; type: ADME, Microsome; conditions: read-out: Stability
[20] = Metabolic stability in pooled human plasma assessed as parent compound remaining at 20 uM measured immediately by LC-MS analysis; type: ADME, cell-free; conditions: read-out: Stability
[21] = Metabolic stability in pooled human plasma assessed as parent compound remaining at 20 uM measured after 30 mins by LC-MS analysis; type: ADME, cell-free; conditions: read-out: Stability
[22] = Metabolic stability in pooled human plasma assessed as parent compound remaining at 20 uM measured after 60 mins by LC-MS analysis; type: ADME, cell-free; conditions: read-out: Stability
[23] = Metabolic stability in pooled human plasma assessed as parent compound remaining at 20 uM measured after 120 mins by LC-MS analysis; type: ADME, cell-free; conditions: read-out: Stability
[24] = Chemical stability of compound in phosphate buffer solution at pH 7.4; type: physicochemical

O=C(O)c1csc(-c2c(F)cccc2F)n1
Ki ([1]; read-out: Ki): 710 nM

OC1(c2csc(-c3c(Cl)cccc3Cl)n2)COC1
Ki ([1]; read-out: Ki): > 100000 nM

Clc1cccc(Cl)c1-c1nc(Cc2nnn[nH]2)cs1
Ki ([1]; read-out: Ki): 44800 nM

CCN(CC)CCOC(=O)c1ccc(N)cc1 [PROCAINE]
half-life (physchem): 2 min

O=C(O)C1=CC(O)CC1 (centres undefined)
Ki ([1]; read-out: pKi (converted)): 126 nM

COc1ccccc1-c1nc(C(=O)O)cs1
Ki [2]: 3100 nM

O=C(O)c1csc(Cc2ccccc2)n1
Ki ([1]; read-out: Ki): 1400 nM

O=C(O)c1csc(-c2cccc(O)c2)n1
Ki ([1]; read-out: Ki): 2700 nM

O=C(O)c1csc(-c2c(I)cccc2I)n1
Ki ([1]; read-out: Ki): 160 nM

Cc1ccc(-c2nc(CC(=O)O)cs2)cc1
Ki ([1]; read-out: Ki): 2900 nM

Cc1ccccc1-c1nc(C(=O)O)cs1
Ki ([1]; read-out: Ki): 900 nM

O=C(O)c1csc(-c2c(C(F)(F)F)cccc2C(F)(F)F)n1
Ki ([1]; read-out: Ki): > 10000 nM

O=C(O)c1csc(-c2ccccc2)n1
Ki ([1]; read-out: Ki): 11500 nM

O=C(O)Cc1csc(-c2ccccc2)n1
Ki ([1]; read-out: Ki): 3100 nM

O=C(O)Cc1csc(Cc2ccccc2)n1
Ki ([1]; read-out: Ki): > 10000 nM

Cc1ccc(-c2nc(C(=O)O)cs2)cc1
Ki ([1]; read-out: Ki): 2300 nM
Ki ([1]; read-out: pKi (converted)): 12600 nM

Cc1cccc(C)c1-c1nc(C(=O)O)cs1
Ki ([1]; read-out: Ki): 100 nM
ΔTm [3]: 18 °C
Activity [4]: Dose-dependent-effect

O=C(O)Cc1csc(-c2c(Cl)cccc2Cl)n1
Ki ([1]; read-out: Ki): > 10000 nM

Clc1cccc(Cl)c1-c1nc(-c2nnn[nH]2)cs1
Ki ([1]; read-out: Ki): 190 nM

O=C(O)c1csc(-c2ccc(-c3ccccc3)cc2)n1
Ki ([1]; read-out: Ki): 5000 nM

O=C(O)c1csc(-c2c(Cl)cccc2Cl)n1
Ki ([1]; read-out: Ki): 62 nM
Kd [5]: 759 nM
ΔTm [3]: 21.4 °C
Activity [4]: Dose-dependent-effect
Papp A→B at 3 µM (BCRP [6]): 10.7 ×10⁻⁶ cm/s
Papp B→A at 3 µM (BCRP [7]): 11.3 ×10⁻⁶ cm/s
efflux ratio at 3 µM (BCRP [8]): 1.06
Papp A→B at 3 µM (BCRP [9]): 10.9 ×10⁻⁶ cm/s
Papp B→A at 3 µM (BCRP [10]): 11.4 ×10⁻⁶ cm/s
efflux ratio at 3 µM (BCRP [11]): 1.05
concentration at 0.5 h [12]: 18600 ng/mL
concentration at 0.5 h [13]: 350 ng/g
Kp at 0.5 h [14]: 0.02
Kp uu at 0.5 h [15]: 0.1
remaining at 0 min, 10 µM [16]: 100%
remaining at 0.25 h, 10 µM [17]: 101%
remaining at 0.5 h, 10 µM [18]: 104%
remaining at 1 h, 10 µM [19]: 100%
remaining at 0 min, 20 µM [20]: 100%
remaining at 0.5 h, 20 µM [21]: 101%
remaining at 1 h, 20 µM [22]: 98%
remaining at 2 h, 20 µM [23]: 94%
Stability [24]: Stable

O=C(O)c1csc(-c2c(Br)cccc2Br)n1
Ki ([1]; read-out: Ki): 50 nM
ΔTm [3]: 22 °C
Activity [4]: Dose-dependent-effect
